Reference: patent US11472798B2 (Mission Therapeutics Limited, priority 2014, dated 2022)

Target: T1, UCHL1 (Homo sapiens, UniProt P09936)
T1 construct: made in house; host or cells: HEK293T
T1 sequence (P09936 1-223): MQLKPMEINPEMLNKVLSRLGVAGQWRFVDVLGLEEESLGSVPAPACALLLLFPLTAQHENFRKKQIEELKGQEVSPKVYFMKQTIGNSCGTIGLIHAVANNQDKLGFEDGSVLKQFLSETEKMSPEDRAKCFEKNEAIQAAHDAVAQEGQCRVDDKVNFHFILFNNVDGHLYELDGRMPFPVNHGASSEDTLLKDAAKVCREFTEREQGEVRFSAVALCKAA
Experiment: UCHL1 biochemical IC50 assay (fluorescence polarisation)
Details: 30 min enzyme/compound pre-incubation at room temp, read after 2 hr incubation, read-out: Activity range (UCHL1 biochemical IC50 assay)
Outline: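 FLAG-UCHL1 purified from transfected HEK293T cells was preincubated 30 min at room temperature with compound (8 points, 100–0.03 μM final) in Tris pH 7.5 buffer with Tween 20, BSA and beta-mercaptoethanol. Reaction started with 50 nM TAMRA-peptide–ubiquitin isopeptide substrate; fluorescence polarisation (ex 540/em 590 nm) read at once and after 2 h.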

| Compound | IC50 [nM] |
| --- | --- |
| COC1CCN(c2ccc(NC(=O)[C@H]3CCN(C#N)C3)nc2)CC1 [Example 61, (S)-1-cyano-N-(5-(4-methoxy-piperidin-1-yl)pyridin-2-yl)pyrrolidine-3-carboxamide] | 1000 to 10000 |
| N#CN1CC[C@H](C(=O)Nc2ncc(-c3ccncc3)s2)C1 [Example 69, (S)-1-cyano-N-(5-(pyridin-4-yl)thiazol-2-yl)pyrrolidine-3-carboxamide] | < 1000 |
| Cc1oncc1-c1ccc2nc(NC(=O)[C@H]3CCN(C#N)C3)sc2c1 [Example 126, (S)-1-cyano-N-(6-(5-methylisoxazol-4-yl)benzo[d]thiazol-2-yl)pyrrolidine-3-carboxamide] | < 1000 |
| C[C@H]1[C@@H](C(=O)Nc2ncc(-c3ccccc3)s2)CCN1C#N [Example 72, (2S,3S)-1-cyano-2-methyl-N-(5-phenylthiazol-2-yl)pyrrolidine-3-carboxamide] | < 1000 |
| N#CN1CCC(C(=O)Nc2ncc(-c3cccc(F)c3)s2)C1 (centres unmarked) [Example 2, 1-cyano-N-(5-(3-fluorophenyl)thiazol-2-yl)pyrrolidine-3-carboxamide] | < 1000 |
| N#CN1CCC(C(=O)Nc2ncc(-c3ccccc3Cl)s2)C1 (centres unmarked) [Example 6, N-(5-(2-chlorophenyl)thiazol-2-yl)-1-cyano-pyrrolidine-3-carboxamide] | 1000 to 10000 |
| N#CN1CC[C@H](C(=O)Nc2cn3cc(Br)ccc3n2)C1 [Example 51, (S)-N-(6-bromoimidazo[1,2-a]pyridin-2-yl)-1-cyano-pyrrolidine-3-carboxamide] | < 1000 |
| N#CN1CCC(C(=O)Nc2ccc(C3CCCCC3)cn2)C1 (centres unmarked) [Example 38, 1-cyano-N-(5-cyclohexyl-pyridin-2-yl)pyrrolidine-3-carboxamide] | 1000 to 10000 |
| N#CN1CCC(C(=O)Nc2cnc(-c3ccccc3)nc2)C1 (centres unmarked) [Example 37, 1-cyano-N-(2-phenyl-pyrimidin-5-yl)pyrrolidine-3-carboxamide] | 10000 to 30000 |
| COc1ccc(-c2ccc3nc(NC(=O)[C@H]4CCN(C#N)C4)sc3c2)cc1 [Example 121, (S)-1-cyano-N-(6-(4-methoxyphenyl)benzo[d]thiazol-2-yl)pyrrolidine-3-carboxamide] | 1000 to 10000 |
| CC(=O)NCC1CCCCN1c1cnc(NC(=O)C2CCN(C#N)C2)s1 (centres unmarked) [Example 93, N-(5-(2-(acetamidomethyl)piperidin-1-yl)thiazol-2-yl)-1-cyanopyrrolidine-3-carboxamide] | < 1000 |
| N#CN1CCC(C(=O)Nc2ccc(N3CCOCC3)cn2)C1 (centres unmarked) [Example 28, 1-cyano-N-(5-morpholino-pyridin-2-yl)pyrrolidine-3-carboxamide] | 1000 to 10000 |
| N#CN1CCC(C#N)(C(=O)Nc2ncc(-c3ccccc3)s2)C1 (centres unmarked) [Example 81, 1,3-dicyano-N-(5-phenylthiazol-2-yl)pyrrolidine-3-carboxamide] | 1000 to 10000 |
| CC(=O)Nc1ccc(-c2cnc(NC(=O)C3CCN(C#N)C3)s2)cc1 (centres unmarked) [Example 114, N-(5-(4-acetamidophenyl)thiazol-2-yl)-1-cyanopyrrolidine-3-carboxamide] | < 1000 |
| N#CN1CC[C@H](C(=O)Nc2cccc(-c3ccccc3)n2)C1 [Example 55, (S)-1-cyano-N-(6-phenylpyridin-2-yl)pyrrolidine 3-carboxamide] | 1000 to 10000 |
| N#CN1CC[C@H](C(=O)Nc2ncc(-c3ccccc3)s2)C1 [Example 1, (S)-1-cyano-N-(5-phenylthiazol-2-yl)pyrrolidine-3-carboxamide] | < 1000 |
| N#CN1CCC(C(=O)Nc2ncc(CN3CCOCC3)s2)C1 (centres unmarked) [Example 140, 1-cyano-N-(5-(morpholinomethyl)thiazol-2-yl)pyrrolidine-3-carboxamide] | < 1000 |
| CCCn1cnc2cc(NC(=O)C3CCN(C#N)C3)ccc21 (centres unmarked) [Example 40, 1-cyano-N-(1-propyl-1H-benzo[d]imidazol-5-yl)pyrrolidine-3-carboxamide] | 1000 to 10000 |
| N#CN1CCC(C(=O)Nc2ccc(Cl)cn2)C1 (centres unmarked) [Example 25, N-(5-chloropyridin-2-yl)-1-cyano-pyrrolidine-3-carboxamide] | 10000 to 30000 |
| CC(=O)Nc1ccccc1-c1cnc(NC(=O)C2CCN(C#N)C2)s1 (centres unmarked) [Example 115, N-(5-(2-acetamiclophenyl)thiazol-2-yl)-1-cyanopyrrolidine-3-carboxamide] | 1000 to 10000 |

Second part, the compound after the results:

| IC50 [nM] | Compound |
| --- | --- |
| 1000 to 10000 | Cc1noc(C)c1-c1cnc2nc(NC(=O)[C@H]3CCN(C#N)C3)sc2c1 [Example 285, (S)-1-cyano-N-(6-(3,5-dimethylisoxazol-4-yl)thiazolo[4,5-b]pyridin-2-yl)pyrrolidine-3-carboxamide] |
| < 1000 | N#CN1CC[C@H](C(=O)Nc2cn(Cc3ccccc3)cn2)C1 [Example 146, (S)—N-(1-benzyl-1H-imidazol-4-yl)-1-cyanopyrrolidine-3-carboxamide] |
| < 1000 | COCCNC(=O)c1ccc(-n2cnc(NC(=O)[C@H]3CCN(C#N)C3)c2)cc1 [Example 158, (S)-1-cyano-N-(1-(4-((2-methoxyethyl)carbamoyl)phenyl)-1H-imidazol-4-yl)pyrrolidine-3-carboxamide] |
| < 1000 | C[C@H]1[C@@H](C(=O)Nc2cc3cc(-c4cn[nH]c4)ccc3cn2)CCN1C#N [Example 266, (2S,3S)—N-(6-(1H-pyrazol-4-yl)isoquinolin-3-yl)-1-cyano-2-methylpyrrolidine-3-carboxamide] |
| < 1000 | Cc1cccc(-c2cc(NC(=O)[C@H]3CCN(C#N)C3)nn2C)c1 [Example 271, (S)-1-cyano-N-(1-methyl-5-(m-tolyl)-1H-pyrazol-3-yl)pyrrolidine-3-carboxamide] |
| 1000 to 10000 | N#CN1CC[C@H](C(=O)Nc2cc3cc(C(N)=O)ccc3cn2)C1 [Example 265, (S)-3-(1-cyanopyrrolidine-3-carboxamido)isoquinoline-6-carboxamide] |
| < 1000 | Cc1nc(NC(=O)[C@H]2CCN(C#N)C2)cn1Cc1ccccc1 [Example 178, (S)—N-(1-benzyl-2-methyl-1H-imidazol-4-yl)-1-cyanopyrrolidine-3-carboxamide] |
| 1000 to 10000 | Cn1cc(-c2ccnc(NC(=O)[C@H]3CCN(C#N)C3)c2)cn1 [Example 211, (S)-1-cyano-N-(4-(1-methyl-1H-pyrazol-4-yl)pyridin-2-yl)pyrrolidine-3-carboxamide] |
| 1000 to 10000 | CN1CCC(n2cnc(NC(=O)[C@H]3CCN(C#N)C3)c2)C1 (stereo partly drawn) [Example 188, (3S)-1-cyano-N-(1-(1-methylpyrrolidin-3-yl)-1H-imidazol-4-yl)pyrrolidine-3-carboxamide] |
| < 1000 | C[C@@H]1CN(C#N)C[C@H]1C(=O)Nc1cn([C@@H](C)c2ccccc2)cn1 [Example 173, (3S,4S)-1-cyano-4-methyl-N-(1-((S)-1-phenylethyl)-1H-imidazol-4-yl)pyrrolidine-3-carboxamide] |
| < 1000 | CNC(=O)c1cc(-c2cnc(NC(=O)[C@H]3CCN(C#N)C3)s2)ccc1Cl [Example 238, (S)-N-(5-(4-chloro-3-(methylcarbamoyl)phenyl)thiazol-2-yl)-1-cyanopyrrolidine-3-carboxamide] |
| < 1000 | COc1cc(-c2cnc(NC(=O)[C@H]3CCN(C#N)C3)s2)ccc1C#N [Example 220, (S)-1-cyano-N-(5-(4-cyano-3-methoxyphenyl)thiazol-2-yl)pyrrolidine-3-carboxamide] |
| < 1000 | N#CN1CC[C@H](C(=O)Nc2cn(-c3cccc(C(F)(F)F)c3)cn2)C1 [Example 154, (S)-1-cyano-N-(1-(3-(trifluoromethyl)phenyl)-1H-imidazol-4-yl)pyrrolidine-3-carboxamide] |
| < 1000 | COc1ccccc1-n1cnc(NC(=O)[C@H]2CCN(C#N)C2)c1 [Example 160, (S)-1-cyano-N-(1-(2-methoxyphenyl)-1H-imidazol-4-yl)pyrrolidine-3-carboxamide] |
| < 1000 | N#CN1CC[C@H](C(=O)Nc2cc(-c3cn4ccnc4cn3)ccn2)C1 [Example 254, (S)-1-cyano-N-(4-(imidazo[1,2-a]pyrazin-6-yl)pyridin-2-yl)pyrrolidine-3-carboxamide] |
| < 1000 | N#CN1CC[C@H](C(=O)Nc2nc3c(s2)CN(C(=O)c2cccnc2)CC3)C1 [Example 196, (S)-1-cyano-N-(5-nicotinoyl-4,5,6,7-tetrahydrothiazolo[5,4-c]pyridin-2-yl)pyrrolidine-3-carboxamide] |
| < 1000 | CNC(=O)c1ccc(-n2cnc(NC(=O)[C@H]3CCN(C#N)C3)c2)cc1 [Example 155, (S)-1-cyano-N-(1-(4-(methylcarbamoyl)phenyl)-1H-imidazol-4-yl)pyrrolidine-3-carboxamide] |
| < 1000 | N#Cc1ccc(OCCCN2CCOCC2)cc1-n1cnc(NC(=O)[C@H]2CCN(C#N)C2)c1 [Example 246, (S)-1-cyano-N-(1-(2-cyano-5-(3-morpholinopropoxy)phenyl)-1H-imidazol-4-yl)pyrrolidine-3-carboxamide] |
| < 1000 | N#CN1CC[C@H](C(=O)Nc2cn(C3Cc4ccccc4C3)cn2)C1 [Example 164, (S)-1-cyano-N-(1-(2,3-dihydro-1H-inden-2-yl)-1H-imidazol-4-yl)pyrrolidine-3-carboxamide] |
| < 1000 | COCCn1ncc2cc(-c3cnc(NC(=O)[C@H]4CCN(C#N)C4)s3)ccc21 [Example 227, (S)-1-cyano-N-(5-(1-(2-methoxyethyl)-1H-indazol-5-yl)thiazol-2-yl)pyrrolidine-3-carboxamide] |
| 1000 to 10000 | CN1CCc2nc(NC(=O)[C@H]3CCN(C#N)C3)sc2C1 [Example 200, (S)-1-cyano-N-(5-methyl-4,5,6,7-tetrahydrothiazolo[5,4-c]pyridin-2-yl)pyrrolidine-3-carboxamide] |
